In patent publication US12600709B2, “Nonpeptide somatostatin type 5 receptor agonists and uses thereof” (Crinetics Pharmaceuticals, Inc., priority 2019, dated 2026):
Like-named read-outs stand apart in the source and are kept apart here.

How the values were obtained:
[1] = target: T1, human somatostatin receptor subtype 2 (Homo sapiens, UniProt P30874); experiment: cAMP assay for SST2R (inhibition of cAMP in CHO-K1 cells); assay type: cell-based; details: Table B; inhibition of cAMP via human SST2 receptor; read-out: SST2 potency
T1 construct: expressed in transfected cells
T1 sequence (P30874 whole entry): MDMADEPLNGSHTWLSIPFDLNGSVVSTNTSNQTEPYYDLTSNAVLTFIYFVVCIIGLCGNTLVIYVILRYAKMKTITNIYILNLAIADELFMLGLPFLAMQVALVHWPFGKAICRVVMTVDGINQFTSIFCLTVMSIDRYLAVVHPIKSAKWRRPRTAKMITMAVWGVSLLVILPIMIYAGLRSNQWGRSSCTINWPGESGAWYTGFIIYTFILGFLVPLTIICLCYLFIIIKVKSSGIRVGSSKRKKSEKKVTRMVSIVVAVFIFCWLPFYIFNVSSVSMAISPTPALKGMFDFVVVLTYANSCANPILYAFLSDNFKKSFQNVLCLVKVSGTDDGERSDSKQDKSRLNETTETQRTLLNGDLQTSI
How it was run: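 Agonism read as decrease in NKH477 (1.6 μM)-stimulated cAMP: compounds applied 20 min, 37° C, with 0.2 mM IBMX, to CHO-K1 stably expressing human SSTR2. cAMP quantified in lysates by time-resolved fluorescence (HTRF kit, 1-24 h RT), standard-curve regression, then EC50.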

[2] = target: T2, human somatostatin receptor subtype 5 (Homo sapiens, UniProt P35346); experiment: cAMP assay for SST5R (inhibition of cAMP in CHO-K1 cells); assay type: cell-based; details: for EC50: inhibition of cAMP via human SST5 receptor, read-out: SST5 potency; for Fold selectivity for SST5 vs SST2: class symbols, SST5 receptor over SST2 receptor
T2 construct: expressed in transfected cells
T2 sequence (P35346 whole entry): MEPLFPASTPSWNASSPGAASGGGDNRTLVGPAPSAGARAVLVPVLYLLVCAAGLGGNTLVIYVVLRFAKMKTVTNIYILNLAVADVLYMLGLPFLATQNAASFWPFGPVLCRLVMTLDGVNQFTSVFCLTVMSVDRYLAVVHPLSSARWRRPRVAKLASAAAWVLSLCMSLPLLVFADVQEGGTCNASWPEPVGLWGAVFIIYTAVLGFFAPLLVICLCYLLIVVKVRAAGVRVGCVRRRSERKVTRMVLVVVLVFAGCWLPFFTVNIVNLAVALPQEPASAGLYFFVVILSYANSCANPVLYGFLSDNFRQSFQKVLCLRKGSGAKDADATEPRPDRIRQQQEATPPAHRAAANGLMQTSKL
How it was run: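 CHO-K1 cells stably expressing human SSTR5 were treated 20 min at 37 °C with compounds plus 1.6 μM NKH477 in HBSS, 0.5 mM HEPES pH 7.4, 0.1% BSA, 0.2 mM IBMX. Lysate cAMP measured by HTRF against a standard curve; EC50 from cAMP-versus-concentration plots.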

Row | Compound | EC50 [1] [nM] | EC50 ([2]; Table A) [nM] | Fold selectivity for SST5 vs SST2 ([2]; Table B) | EC50 ([2]; Table B) [nM]
1 | C[C@]1(N)CCN(c2c(C(=O)N3C4CC5CC(C4)CC3C5)cncc2-c2nc3cccc(Cl)c3[nH]2)C1 [2-45, (3S)-1-(3-{2-azatricyclo[3.3.1.1^3,7]decane-2-carbonyl}-5-(7-chloro-1H-1,3-benzodiazol-2-yl)pyridin-4-yl)-3-methylpyrrolidin-3-amine] | 100 to 1000 | < 10 | ++ (++=100 to 499) | < 10
2 | COc1cc(-c2c(C)ncc(C(=O)NC3CCCCC3)c2N2CC[C@](C)(N)C2)ccn1 [1-255, 4-[(3S)-3-amino-3-methylpyrrolidin-1-yl]-N-cyclohexyl-2′-methoxy-2-methyl-[3,4′-bipyridine]-5-carboxamide] | > 1000 | < 10 | +++ (+++=>500) | < 10
3 | CCC(CC)CNC(=O)c1cncc(-c2cc(F)cc(F)c2)c1N1CC[C@](C)(N)C1 [1-58, 4-[(3S)-3-amino-3-methylpyrrolidin-1-yl]-5-(3,5-difluorophenyl)-N-(2-ethylbutyl)pyridine-3-carboxamide] | 100 to 1000 | < 10 | +++ (+++=>500) | < 10
4 | COc1ncc(C(=O)N[C@@H](C)C(F)(F)F)c(N2CC[C@](C)(N)C2)c1-c1ccc2nonc2c1 [1-186, 4-[(3S)-3-amino-3-methylpyrrolidin-1-yl]-5-(2,1,3-benzoxadiazol-5-yl)-6-methoxy-N-[(2S)-1,1,1-trifluoropropan-2-yl]pyridine-3-carboxamide] | 100 to 1000 | < 10 | +++ (+++=>500) | < 10
5 | Cc1cccc2[nH]c(-c3cncc(C(=O)N4CC5CCC4CC5)c3N3CC[C@](C)(N)C3)nc12 [2-35, (3S)-1-(3-{2-azabicyclo[2.2.2]octane-2-carbonyl}-5-(4-methyl-1H-1,3-benzodiazol-2-yl)pyridin-4-yl)-3-methylpyrrolidin-3-amine] | 100 to 1000 | < 10 | ++ (++=100 to 499) | < 10
6 | C[C@]1(N)CCN(c2c(C(=O)NC3CCCC3)cnc(C#N)c2-c2ccnc(C(F)(F)F)c2)C1 [1-248, 4-[(3S)-3-amino-3-methylpyrrolidin-1-yl]-2-cyano-N-cyclopentyl-2′-(trifluoromethyl)-[3,4′-bipyridine]-5-carboxamide] | > 1000 | < 10 | +++ (+++=>500) | < 10
7 | C[C@H](NC(=O)c1cncc(-c2ccc3cnn(C)c3c2)c1N1CC[C@](C)(N)C1)C1CC1 [1-161, 4-[(3S)-3-amino-3-methylpyrrolidin-1-yl]-N-[(1S)-1-cyclopropylethyl]-5-(1-methyl-1H-indazol-6-yl)pyridine-3-carboxamide] | > 1000 | < 10 | ++ (++=100 to 499) | < 10
8 | COc1ncc(C(=O)N[C@@H](C)C2CC2)c(N2CC[C@](C)(N)C2)c1-c1ccc(Cl)c(F)c1 [1-263, 4-[(3S)-3-amino-3-methylpyrrolidin-1-yl]-5-(4-chloro-3-fluorophenyl)-N-[(1S)-1-cyclopropylethyl]-6-methoxypyridine-3-carboxamide] | > 1000 | < 10 | +++ (+++=>500) | < 10
9 | Cc1cccc2[nH]c(-c3cncc(C(=O)NC4CCCCC4)c3N3CC[C@](C)(N)C3)nc12 [2-38, 4-[(3S)-3-amino-3-methylpyrrolidin-1-yl]-N-cyclohexyl-5-(4-methyl-1H-1,3-benzodiazol-2-yl)pyridine-3-carboxamide] | 100 to 1000 | < 10 | + (+=10 to 99) | < 10
10 | CC(C)CNC(=O)c1cnc(C#N)c(-c2ccnc(C(F)(F)F)c2)c1N1CC[C@](C)(N)C1 [1-250, 4-[(3S)-3-amino-3-methylpyrrolidin-1-yl]-2-cyano-N-(2-methylpropyl)-2′-(trifluoromethyl)-[3,4′-bipyridine]-5-carboxamide] | > 1000 | < 10 | +++ (+++=>500) | < 10
11 | C[C@H](NC(=O)c1cncc(-c2cccc3c2cnn3C)c1N1CC[C@](C)(N)C1)C1CC1 [1-162, 4-[(3S)-3-amino-3-methylpyrrolidin-1-yl]-N-[(1S)-1-cyclopropylethyl]-5-(1-methyl-1H-indazol-4-yl)pyridine-3-carboxamide] | > 1000 | < 10 | +++ (+++=>500) | < 10
12 | Cc1ncc(C(=O)NC23CC(C2)C3)c(N2CC[C@](C)(N)C2)c1-c1cc(F)cc(F)c1 [1-74, 4-[(3S)-3-amino-3-methylpyrrolidin-1-yl]-N-{bicyclo[1.1.1]pentan-1-yl}-5-(3,5-difluorophenyl)-6-methylpyridine-3-carboxamide] | > 1000 | < 10 | +++ (+++=>500) | < 10

More lines, now with the values ahead:

Row | EC50 [1] [nM] | EC50 ([2]; Table A) [nM] | Fold selectivity for SST5 vs SST2 ([2]; Table B) | EC50 ([2]; Table B) [nM] | Compound
13 | 10 to 100 | < 10 | +++ (+++=>500) | < 10 | Cc1ncc(C(=O)N[C@@H](C)C(F)(F)F)c(N2CC[C@](C)(N)C2)c1-c1cc(F)cc(OC(F)F)c1 [1-171, 4-[(3S)-3-amino-3-methylpyrrolidin-1-yl]-5-[3-(difluoromethoxy)-5-fluorophenyl]-6-methyl-N-[(2S)-1,1,1-trifluoropropan-2-yl]pyridine-3-carboxamide]
14 | > 1000 | < 10 | +++ (+++=>500) | < 10 | N#Cc1ncc(C(=O)NC2CCCCCC2)c(N2CC[C@H](N)C2)c1-c1cc(F)cc(F)c1 [1-73, 4-[(3S)-3-aminopyrrolidin-1-yl]-6-cyano-N-cycloheptyl-5-(3,5-difluorophenyl)pyridine-3-carboxamide]
15 | 100 to 1000 | < 10 | ++ (++=100 to 499) | < 10 | CC(NC(=O)c1cnc(C#N)c(-c2cc(F)cc(F)c2)c1N1CC[C@H](N)C1)C(F)(F)F (stereo partly drawn) [1-226, 4-[(3S)-3-aminopyrrolidin-1-yl]-6-cyano-5-(3,5-difluorophenyl)-N-(1,1,1-trifluoropropan-2-yl)pyridine-3-carboxamide]
16 | 100 to 1000 | < 10 | +++ (+++=>500) | < 10 | CCC(CC)NC(=O)c1cnc(C#N)c(-c2cc(F)cc(F)c2)c1N1CC[C@H](N)C1 [1-72, 4-[(3S)-3-aminopyrrolidin-1-yl]-6-cyano-5-(3,5-difluorophenyl)-N-(pentan-3-yl)pyridine-3-carboxamide]
17 | 100 to 1000 | < 10 | +++ (+++=>500) | < 10 | C[C@H](NC(=O)c1cnc(C#N)c(-c2cc(F)cc(F)c2)c1N1CC[C@H](N)C1)C(F)(F)F [1-71, 4-[(3S)-3-aminopyrrolidin-1-yl]-6-cyano-5-(3,5-difluorophenyl)-N-[(2S)-1,1,1-trifluoropropan-2-yl]pyridine-3-carboxamide]
18 | 100 to 1000 | < 10 | +++ (+++=>500) | < 10 | C[C@H](NC(=O)c1cnc(OCCO)c(-c2cc(F)cc(F)c2)c1N1CC[C@](C)(N)C1)C1CC1 [1-246, 4-[(3S)-3-amino-3-methylpyrrolidin-1-yl]-N-[(1S)-1-cyclopropylethyl]-5-(3,5-difluorophenyl)-6-(2-hydroxyethoxy)pyridine-3-carboxamide]
19 | 100 to 1000 | < 10 | ++ (++=100 to 499) | < 10 | C[C@@H](NC(=O)c1cncc(-c2cc(F)cc(F)c2)c1N1CC[C@](C)(N)C1)C1CC1 [1-44, 4-[(3S)-3-amino-3-methylpyrrolidin-1-yl]-N-[(1R)-1-cyclopropylethyl]-5-(3,5-difluorophenyl)pyridine-3-carboxamide]
20 | 100 to 1000 | < 10 | +++ (+++=>500) | < 10 | CCOc1ncc(C(=O)N[C@@H](C)C2CC2)c(N2CC[C@](C)(N)C2)c1-c1cc(F)cc(F)c1 [1-176, 4-[(3S)-3-amino-3-methylpyrrolidin-1-yl]-N-[(1S)-1-cyclopropylethyl]-5-(3,5-difluorophenyl)-6-ethoxypyridine-3-carboxamide]
21 | 100 to 1000 | < 10 | +++ (+++=>500) | < 10 | Cc1ncc(C(=O)N[C@@H](C)C(F)(F)F)c(N2CC[C@H](N)C2)c1-c1cc(F)cc(OC(F)F)c1 [1-231, 4-[(3S)-3-aminopyrrolidin-1-yl]-5-[3-(difluoromethoxy)-5-fluorophenyl]-6-methyl-N-[(2S)-1,1,1-trifluoropropan-2-yl]pyridine-3-carboxamide]
22 | 10 to 100 | < 10 | +++ (+++=>500) | < 10 | COc1ncc(C(=O)N[C@@H](C)C(F)(F)F)c(N2CC[C@](C)(N)C2)c1-c1cc(F)cc(Cl)c1 [1-228, 4-[(3S)-3-amino-3-methylpyrrolidin-1-yl]-5-(3-chloro-5-fluorophenyl)-6-methoxy-N-[(2S)-1,1,1-trifluoropropan-2-yl]pyridine-3-carboxamide]
23 | 100 to 1000 | < 10 | +++ (+++=>500) | < 10 | N#Cc1ncc(C(=O)NC23CC(C2)C3)c(N2CC[C@H](N)C2)c1-c1cc(F)cc(Cl)c1 [1-90, 4-[(3S)-3-aminopyrrolidin-1-yl]-N-{bicyclo[1.1.1]pentan-1-yl}-5-(3-chloro-5-fluorophenyl)-6-cyanopyridine-3-carboxamide]
